According to US9127079B2, “Inhibitors of phosphatase and tensin homolog (PTEN) conjugates” (THE UNIVERSITY OF BRITISH COLUMBIA, priority 2009, dated 2015):

How the values were obtained:
Type in all cases: in vivo, rat
[1] = Cortical glucose metabolism by FDG-PET after cerebral ischemia; conditions: one week after treatment
Method: (§1) Adult male Sprague-Dawley rats (weight 200 g) were used in this study. All surgical procedures were performed using sterile/aseptic techniques in accordance with Institutional guidelines. Rats were anesthetized with chloral hydrate (0.4 g/kg IP) and subjected to cerebral ischemia. Ligation of the right middle cerebral artery (MCA) and bilateral common carotids arteries (CCAs) was performed by methods described previously (Shyu et al. 2005). The CCAs were clamped with non-traumatic arterial clips. The right MCA was ligated with a 10-0 nylone suture. After 90 min of ischemia, the suture on the MCA and the arterial clips on the CCAs were removed to allow reperfusion. Core body temperature was monitored with a thermistor probe (Hewlett-Packard™ Model 21090A probe, Hewlett-Packard Company™, Andover, Mass.), and maintained at 37° C. with a heating pad during anesthesia. After recovery from anesthesia, rat body temperature was maintained at 37° C. with a heat lamp. Experimental rats were subdivided into five groups receiving different types of interference peptides, all fused to a TAT protein transduction domain (PTEN-K13 (SEQ ID NO: 2) 2 hrs or 6 hrs, PTEN-K13R (SEQ ID NO: 3), PTEN-K289 (SEQ ID NO: 4), and vehicle control) via femoral vein with dosage of 8.4 mg/kg at 2 or 6 hours after MCA ligation for three consecutive days. […]

[2] = Body asymmetry (elevated body swing test) after cerebral ischemia; conditions: vs Peptide-K13R, Peptide-K289, saline
Method: as §1, with “anesthesia.” for “anesthesia. After recovery from anesthesia, rat body temperature was maintained at 37° C. with a heat lamp. Experimental rats were subdivided into five groups receiving different types of interference peptides, all fused to a TAT protein transduction domain (PTEN-K13 (SEQ ID NO: 2) 2 hrs or 6 hrs, PTEN-K13R (SEQ ID NO: 3), PTEN-K289 (SEQ ID NO: 4), and vehicle control) via femoral vein with dosage of 8.4 mg/kg at 2 or 6 hours after MCA ligation for three consecutive days.”
(§2) Behavioral assessments were measured on day 28 after stroke. […] The baseline-test scores were recorded in order to normalize those taken after cerebral ischemia. The elevated body swing test (EBST) was used to assess body asymmetry after MCA ligation and evaluated quantitatively as previously described (Shyu et al. 2004). […] The frequency of initial head swing contra-lateral to the ischemic side was counted in twenty continuous tests and was normalized, as follows: % recovery=[1−(lateral swings in twenty tests−10)/10×100%. […]

[3] = Forelimb grip strength after cerebral ischemia; conditions: before vs 28 days after ischemia
Method: as §1, with “anesthesia.” for “anesthesia. After recovery from anesthesia, rat body temperature was maintained at 37° C. with a heat lamp. Experimental rats were subdivided into five groups receiving different types of interference peptides, all fused to a TAT protein transduction domain (PTEN-K13 (SEQ ID NO: 2) 2 hrs or 6 hrs, PTEN-K13R (SEQ ID NO: 3), PTEN-K289 (SEQ ID NO: 4), and vehicle control) via femoral vein with dosage of 8.4 mg/kg at 2 or 6 hours after MCA ligation for three consecutive days.”
as §2

Substance: KEIVSRNKRRYQED-YGRKKRRQRRR (KEIVSRNKRRYQEDYGRKKRRQRRR; PTEN K13 interference peptide conjugated to TAT protein transduction domain) [Peptide-K13]
- FDG uptake over the right cortex (microPET) ([1]; i.v. 8.4 mg/kg given 2 hours after ischemia onset): striking increase
- FDG uptake over the right cortex (microPET) ([1]; i.v. 8.4 mg/kg given 6 hours after ischemia onset): striking increase
- recovery in body swing tests ([2]; given 2 hours after ischemia): much more recovery
- recovery in body swing tests ([2]; given 6 hours after ischemia): much more recovery
- forelimb grip strength ratio ([3]; given 2 hours after ischemia): much better strength ratio
- forelimb grip strength ratio ([3]; given 6 hours after ischemia): much better strength ratio
